Data taken from patent publication US7951954B2, “Bezothiazol derivatives as Beta2 adrenoreceptor agonists” (AstraZeneca AB, priority 2006, dated 2011).
Where a name gives a salt, the structure may show the parent alone.

How the values were obtained:
Adrenergic β2 = molecular target: T1, Adrenergic β2 (Homo sapiens, UniProt P07550); assay: Adrenergic β2 mediated cAMP production in H292 cells (AlphaScreen cAMP detection); format: cell-based; settings: for EC50: cAMP production in H292 cells, 300 μM rolipram, 10 minutes with compound, read-out: β2 pEC50 (converted); for Intrinsic Activity: fraction relative to the maximum activity determined for formoterol in each experiment, H292 cells, cAMP
T1 construct: endogenous in cells; host or cells: H292 cells
T1 sequence (P07550 whole entry): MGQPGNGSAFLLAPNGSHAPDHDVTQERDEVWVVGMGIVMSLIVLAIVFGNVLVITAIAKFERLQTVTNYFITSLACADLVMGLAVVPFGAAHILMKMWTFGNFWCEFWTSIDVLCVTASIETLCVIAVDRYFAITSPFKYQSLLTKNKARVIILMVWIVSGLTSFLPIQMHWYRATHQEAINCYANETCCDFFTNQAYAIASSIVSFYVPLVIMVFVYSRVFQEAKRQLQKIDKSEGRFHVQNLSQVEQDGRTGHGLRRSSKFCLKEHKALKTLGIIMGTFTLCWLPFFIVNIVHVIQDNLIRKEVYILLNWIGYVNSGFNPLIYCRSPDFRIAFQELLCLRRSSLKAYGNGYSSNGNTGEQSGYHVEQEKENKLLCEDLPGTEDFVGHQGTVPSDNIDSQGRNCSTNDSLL
Method: Adrenergic β2 Mediated cAMP Production
H292 cells were grown in RPMI (Roswell Park Memorial Institute) medium containing, 10% (v/v) FBS (foetal bovine serum) and 2 mM L-glutamine. Cells were grown in 225 cm2 flasks containing 25 mL media in a humidified incubator at 37° C., 5% CO2. Cells were harvested from the flask and passaged at a 1 in 10 dilution once per week.
The media from flasks containing H292 cells was removed, rinsed with 10 mL PBS phosphate buffered saline) and replaced with 10 mL Accutase™ cell detachment solution. Flasks were incubated for 15 minutes in a humidified incubator at 37° C., 5% CO2. The cell suspension was counted and the cells re-suspended in RPMI media (containing 10% (v/v) FBS and 2 mM L-glutamine) at 0.05×10^6 cells per mL. 5000 cells in 100 μL were added to each well of a tissue-culture-treated 96-well plate and the cells incubated overnight in a humidified incubator at 37° C., 5% CO2. The culture media was removed, washed twice with 100 μL assay buffer and replaced with 50 μL assay buffer. Cells were rested at room temperature for 20 minutes after which time 25 μL of rolipram (1.2 mM made up in assay buffer containing 2.4% (v/v) dimethylsulphoxide) was added. Cells were incubated with rolipram for 10 minutes after which time test compounds (made up as ×4 concentrated stocks in assay buffer containing 4% (v/v) dimethylsulphoxide) were added and the cells were incubated for 10 minutes at room temperature. Final rolipram concentration in the assay was 300 μM and final vehicle concentration was 1.6% (v/v) dimethylsulphoxide. The reaction was stopped by removing supernatants, washing once with 100 μL assay buffer and replacing with 50 μL lysis buffer. The cell monolayer was frozen at −80° C. for 30 minutes (or overnight).
The concentration of cAMP (cyclic adenosine monophosphate) in the cell lysate was determined using the AlphaScreen™ methodology. The frozen cell plate was thawed for 20 minutes on a plate shaker then 10 μL of the cell lysate was transferred to a 96-well white plate. 40 μL of mixed AlphaScreen™ detection beads (containing equal volumes of donor beads (pre-incubated with biotinylated cAMP in the dark for 30 minutes) and acceptor beads), was added to each well and the plate incubated at room temperature for 10 hours in the dark. The AlphaScreen™ signal was measured using an EnVision spectrophotometer (Perkin-Elmer Inc.) with the recommended manufacturer's settings. cAMP concentrations were determined by reference to a calibration curve determined in the same experiment using standard cAMP concentrations (made up in lysis buffer in a 96-well tissue-culture-treated plate and frozen/thawed alongside the test samples) and detected using the same protocol. Concentration response curves for agonists were constructed to determine both the pEC50 and Intrinsic Activity.

[1] = molecular target: T2, recombinant human α1D receptor (Homo sapiens, UniProt P25100); assay: Adrenergic α1D selectivity assay, [3H]-prazosin binding to HEK293 membranes; settings: inhibition of [3H]-prazosin binding, HEK293 membranes with recombinant human α1D; read-out: α1D pEC50 (converted)
T2 construct: expressed in transfected cells; host or cells: HEK293
T2 sequence (P25100 1-572): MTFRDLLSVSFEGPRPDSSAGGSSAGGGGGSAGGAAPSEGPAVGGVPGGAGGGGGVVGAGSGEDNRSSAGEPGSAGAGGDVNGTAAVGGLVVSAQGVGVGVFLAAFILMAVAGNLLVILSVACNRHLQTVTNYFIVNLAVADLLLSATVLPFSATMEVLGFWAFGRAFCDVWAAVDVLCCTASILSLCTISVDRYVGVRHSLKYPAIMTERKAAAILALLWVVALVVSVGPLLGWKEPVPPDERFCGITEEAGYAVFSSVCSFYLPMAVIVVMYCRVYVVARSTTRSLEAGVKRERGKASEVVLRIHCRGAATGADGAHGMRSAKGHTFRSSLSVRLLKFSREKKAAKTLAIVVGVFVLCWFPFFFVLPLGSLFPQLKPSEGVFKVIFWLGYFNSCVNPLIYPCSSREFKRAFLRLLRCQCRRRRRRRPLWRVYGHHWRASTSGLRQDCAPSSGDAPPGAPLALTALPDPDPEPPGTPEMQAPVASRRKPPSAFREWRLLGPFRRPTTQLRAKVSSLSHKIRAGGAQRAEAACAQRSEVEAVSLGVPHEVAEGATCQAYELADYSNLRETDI
Method: (§1) These were diluted in Assay Buffer (50 mM HEPES, 1 mM EDTA, 0.1% gelatin, pH 7.4) to provide a final concentration of membranes that gave a clear window between maximum and minimum specific binding.
Assays were performed in U-bottomed 96-well polypropylene plates. […] For each assay plate 8 replicates were obtained for [^3H]-prazosin binding in the presence of 10 μL vehicle (10% (v/v) DMSO in Assay Buffer; defining maximum binding) or 10 μL BMY7378 (10 μM final concentration; defining non-specific binding (NSB)). Membranes were then added to achieve a final volume of 100 μL. The plates were incubated for 2 hours at room temperature and then filtered onto PEI coated GF/B filter plates, pre-soaked for 1 hour in Assay Buffer, using a 96-well plate Tomtec cell harvester. Five washes with 250 μL wash buffer (50 mM HEPES, 1 mM EDTA, pH 7.4) were performed at 4° C. to remove unbound radioactivity. The plates were dried then sealed from underneath using Packard plate sealers and MicroScint-O (50 μL) was added to each well. The plates were sealed (TopSeal A) and filter-bound radioactivity was measured with a scintillation counter (TopCount, Packard BioScience) using a 3-minute counting protocol.
(§2) Total specific binding (B0) was determined by subtracting the mean NSB from the mean maximum binding. NSB values were also subtracted from values from all other wells.

[2] = molecular target: T3, recombinant human adrenergic beta 1 receptors (Homo sapiens, UniProt P08588); assay: Adrenergic β1 selectivity assay, [125I]-Iodocyanopindolol binding to membranes; settings: inhibition of [125I]-Iodocyanopindolol binding, read-out: β1 pEC50 (converted)
T3 construct: purchased Euroscreen
T3 sequence (P08588 whole entry): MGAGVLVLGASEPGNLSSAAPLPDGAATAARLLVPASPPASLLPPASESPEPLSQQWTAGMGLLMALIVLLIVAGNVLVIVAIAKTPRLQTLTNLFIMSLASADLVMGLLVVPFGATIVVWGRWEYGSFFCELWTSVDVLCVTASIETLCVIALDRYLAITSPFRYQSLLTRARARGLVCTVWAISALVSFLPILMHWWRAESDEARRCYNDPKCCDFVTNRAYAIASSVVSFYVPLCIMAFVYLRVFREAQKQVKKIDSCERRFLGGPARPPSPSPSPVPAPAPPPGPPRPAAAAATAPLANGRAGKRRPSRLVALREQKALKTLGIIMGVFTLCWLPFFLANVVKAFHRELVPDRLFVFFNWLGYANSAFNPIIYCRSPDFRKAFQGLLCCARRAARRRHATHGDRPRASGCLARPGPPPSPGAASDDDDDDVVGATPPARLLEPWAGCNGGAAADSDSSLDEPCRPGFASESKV
Method: as §1, with “Membranes containing recombinant human adrenergic beta 1 receptors were obtained from Euroscreen. These” for “These”, “EDTA, 120 mM NaCl,” for “EDTA,”
Assays were performed in U-bottomed 96-well polypropylene plates. 10 μL [^125I]-Iodocyanopindolol (0.036 nM final concentration) and 10 μL of test compound (10× final concentration) were added to each test well. For each assay plate 8 replicates were obtained for [^125I]-Iodocyanopindolol binding in the presence of 10 μL vehicle (10% (v/v) DMSO in Assay Buffer; defining maximum binding) or 10 μL Propranolol (10 μM final concentration; defining non-specific binding (NSB)). Membranes were then added to achieve a final volume of 100 μL. The plates were incubated for 2 hours at room temperature and then filtered onto PEI coated GF/B filter plates, pre-soaked for 1 hour in Assay Buffer, using a 96-well plate Tomtec cell harvester. Five washes with 250 μL wash buffer (50 mM HEPES, 1 mM EDTA, 120 mM NaCl, pH 7.4) were performed at 4° C. to remove unbound radioactivity. The plates were dried then sealed from underneath using Packard plate sealers and MicroScint-O (50 μL) was added to each well. The plates were sealed (TopSeal A) and filter-bound radioactivity was measured with a scintillation counter (TopCount, Packard BioScience) using a 3-minute counting protocol.
as §2

EC50 (Adrenergic β2) [nM]	Intrinsic Activity (Adrenergic β2)	EC50 [1] [nM]	EC50 [2] [nM]	Structure (SMILES)
0.794	0.8	398	501	CC(C)OCCCNCc1cccc(CCNC[C@H](O)c2ccc(O)c3[nH]c(=O)sc23)c1 [Example 64, 4-Hydroxy-7-[1R-hydroxy-2-(2-{3-[(3-isopropoxy-propylamino)-methyl]-phenyl}-ethylamino)-ethyl]-3H-benzothiazol-2-one bis-hydrochloride salt]
0.794	0.9	31.6	398	O=c1[nH]c2c(O)ccc([C@@H](O)CNCCc3cccc(CN4CCCCCC4)c3)c2s1 [Example 71, 7-{2-[2-(3-Azepan-1-ylmethyl-phenyl)-ethylamino]-1R-hydroxy-ethyl}-4-hydroxy-3H-benzothiazol-2-one bis-hydrochloride salt-]
1	0.9	398	100	O=c1[nH]c2c(O)ccc([C@@H](O)CNCCc3cccc(CN4CCOCC4)c3)c2s1 [Example 72, 4-Hydroxy-7-{1R-hydroxy-2-[2-(3-morpholin-4-ylmethyl-phenyl)-ethylamino]-ethyl}-3H-benzothiazol-2-one bis-hydrochloride salt]
